Marks after values point to notes of the source that are not given here.
System: Donor 3 GMA T-Cell Lines
Experiment: ATP proliferation assay (CellTiter Glo), Donor 3 GMA T-cell lines, incl. reactivity to non-canonical GA peptides
Type: cell-based, human

glatiramer acetate [COP]
Mean, ATP proliferation assay (T-cell line 165-B2G, 3 μg/mL, Day 40): 11983
Mean, ATP proliferation assay (T-cell line 165-B2G, line COP 10 μg/mL, footnote: well contained 3 μg/mL COP, Day 40): 10980*
Proliferation (luminescent ATP assay), Mean (T-cell line 165-B5G, 1 μg/mL antigen, Day 81 of culturing, No Antigen Value 2432): 6275 RLU
Mean, ATP proliferation assay (T-cell line 165-B5G, 1 μg/mL, Day 40): 3672
Proliferation (luminescent ATP assay), Mean (T-cell line 165-B5G, 3 μg/mL antigen, Day 81 of culturing, No Antigen Value 2432): 7499 RLU
Mean, ATP proliferation assay (T-cell line 165-B5G, 3 μg/mL, Day 40): 3673
Proliferation (luminescent ATP assay), Mean (T-cell line 165-B5G, 10 μg/mL antigen, Day 81 of culturing, No Antigen Value 2432): 10914 RLU
Mean, ATP proliferation assay (T-cell line 165-B5G, 10 μg/mL, Day 40): 14282
Proliferation (luminescent ATP assay), Mean (T-cell line 165-B5G, 30 μg/mL antigen, Day 81 of culturing, No Antigen Value 2432): 13974 RLU
Mean, ATP proliferation assay (T-cell line 165-C4G, 1 μg/mL, Day 40): 3143
Mean, ATP proliferation assay (T-cell line 165-C4G, 3 μg/mL, Day 40): 3959
Mean, ATP proliferation assay (T-cell line 165-C4G, line COP 10 μg/mL, footnote: well contained 3 μg/mL COP, Day 40): 3717*
Mean, ATP proliferation assay (T-cell line 165-C5G, 1 μg/mL, Day 40): 12667
Mean, ATP proliferation assay (T-cell line 165-C5G, 3 μg/mL, Day 40): 24835
Mean, ATP proliferation assay (T-cell line 165-C5G, 10 μg/mL, Day 40): 47537
Mean, ATP proliferation assay (T-cell line 165-C8G, 1 μg/mL, tested with the Donor 3 COP lines of Table 25): 400 RLU
Mean, ATP proliferation assay (T-cell line 165-C8G, 3 μg/mL, tested with the Donor 3 COP lines of Table 25): 4821 RLU
Mean, ATP proliferation assay (T-cell line 165-C8G, 10 μg/mL, tested with the Donor 3 COP lines of Table 25): 22961 RLU
Mean, ATP proliferation assay (T-cell line 165-D8G, 1 μg/mL, Day 40): 8088
Mean, ATP proliferation assay (T-cell line 165-D8G, 3 μg/mL, Day 40): 8722
Mean, ATP proliferation assay (T-cell line 165-D8G, 10 μg/mL, Day 40): 28872
Proliferation (luminescent ATP assay), Mean (T-cell line 165-E7G, 1 μg/mL antigen, Day 81 of culturing, No Antigen Value 2145): 4217 RLU
Mean, ATP proliferation assay (T-cell line 165-E7G, 1 μg/mL, Day 40): 3794
Proliferation (luminescent ATP assay), Mean (T-cell line 165-E7G, 3 μg/mL antigen, Day 81 of culturing, No Antigen Value 2145): 5366 RLU
Mean, ATP proliferation assay (T-cell line 165-E7G, 3 μg/mL, Day 40): 4147
Proliferation (luminescent ATP assay), Mean (T-cell line 165-E7G, 10 μg/mL antigen, Day 81 of culturing, No Antigen Value 2145): 7619 RLU
Mean, ATP proliferation assay (T-cell line 165-E7G, 10 μg/mL, Day 40): 12565
Proliferation (luminescent ATP assay), Mean (T-cell line 165-E7G, 30 μg/mL antigen, Day 81 of culturing, No Antigen Value 2145): 7161 RLU
Proliferation (luminescent ATP assay), Mean (T-cell line 165-E9G, 1 μg/mL antigen, Day 50 of culturing, No Antigen Value 1742): 1999 RLU
Mean, ATP proliferation assay (T-cell line 165-E9G, 1 μg/mL, Day 40): 3216
Proliferation (luminescent ATP assay), Mean (T-cell line 165-E9G, 3 μg/mL antigen, Day 50 of culturing, No Antigen Value 1742): 5538 RLU
Mean, ATP proliferation assay (T-cell line 165-E9G, 3 μg/mL, Day 40): 5584
Mean, ATP proliferation assay (T-cell line 165-E9G, 10 μg/mL, Day 40): 25454
Proliferation (luminescent ATP assay), Mean (T-cell line 165-E9G, 30 μg/mL antigen, Day 50 of culturing, No Antigen Value 1742): 38286 RLU
Proliferation (luminescent ATP assay), Mean (T-cell line 165-E9G, 10 μpg/mL antigen, Day 50 of culturing, No Antigen Value 1742): 38813 RLU
Mean, ATP proliferation assay (T-cell line 165-F2G, 1 μg/mL, Day 40): 1700
Mean, ATP proliferation assay (T-cell line 165-F2G, 3 μg/mL, Day 40): 1332
Mean, ATP proliferation assay (T-cell line 165-F2G, 10 μg/mL, Day 40): 1554
Mean, ATP proliferation assay (T-cell line 165-F5G, 1 μg/mL, Day 40): 4332
Mean, ATP proliferation assay (T-cell line 165-F5G, 3 μg/mL, Day 40): 6099
Mean, ATP proliferation assay (T-cell line 165-F5G, 10 μg/mL, Day 40): 19498
Mean, ATP proliferation assay (T-cell line 165-F8G, 1 μg/mL, Day 40): 3690
Mean, ATP proliferation assay (T-cell line 165-F8G, 3 μg/mL, Day 40): 3184
Mean, ATP proliferation assay (T-cell line 165-F8G, 10 μg/mL, Day 40): 10663
Proliferation (luminescent ATP assay), Mean (T-cell line 165-F10G, 1 μg/mL antigen, Day 50 of culturing, No Antigen Value 3752): 6350 RLU
Mean, ATP proliferation assay (T-cell line 165-F10G, 1 μg/mL, Day 40): 8427
Proliferation (luminescent ATP assay), Mean (T-cell line 165-F10G, 3 μg/mL antigen, Day 50 of culturing, No Antigen Value 3752): 40495 RLU
Proliferation (luminescent ATP assay), Mean (T-cell line 165-F10G, 10 μg/mL antigen, Day 50 of culturing, No Antigen Value 3752): 58726 RLU
Mean, ATP proliferation assay (T-cell line 165-F10G, 10 μg/mL, Day 40): 29986
Proliferation (luminescent ATP assay), Mean (T-cell line 165-F10G, 30 μg/mL antigen, Day 50 of culturing, No Antigen Value 3752): 60488 RLU
Mean, ATP proliferation assay (T-cell line 165-F10G, line COP 3 μg/mL, footnote: well contained 10 μg/mL COP, Day 40): 31303**
Proliferation (luminescent ATP assay), Mean (T-cell line 165-H11G, 1 μg/mL antigen, Day 50 of culturing, No Antigen Value 1485): 8610 RLU
Mean, ATP proliferation assay (T-cell line 165-H11G, 1 μg/mL, Day 40): 9102
Proliferation (luminescent ATP assay), Mean (T-cell line 165-H11G, 3 μg/mL antigen, Day 50 of culturing, No Antigen Value 1485): 37551 RLU
Mean, ATP proliferation assay (T-cell line 165-H11G, 3 μg/mL, Day 40): 15637
Proliferation (luminescent ATP assay), Mean (T-cell line 165-H11G, 10 μg/mL antigen, Day 50 of culturing, No Antigen Value 1485): 50044 RLU
Mean, ATP proliferation assay (T-cell line 165-H11G, 10 μg/mL, Day 40): 43786
Proliferation (luminescent ATP assay), Mean (T-cell line 165-H11G, 30 μg/mL antigen, Day 50 of culturing, No Antigen Value 1485): 32898 RLU
responsiveness in proliferation assay (all 8 Donor 3 GMA cell lines tested, Day 32, 10 μg/mL (Table 19)): responsive
responsiveness in proliferation assay (eleven of the 12 cell lines (all but F2G), Day 40, 1, 3 or 10 μg/mL (Table 21)): responsive
